{
  "source": "patent US20230092005A1",
  "about": "“COMPOSITIONS AND METHODS FOR TREATING CANCER AND TUMOR” (OBLATO, INC., priority 2020, published 2023)",
  "tested_on": "human A549 lung cancer xenografts",
  "assay": "TUNEL staining of extracted A549 xenograft tumors (apoptosis counting and grading)",
  "type": "in vivo, BALB/c Nude mouse",
  "details": "for Apoptosis grade + : number of animals / Apoptosis grade ++ (moderate): number of animals / Apoptosis grade +++ (marked): number of animals / Apoptosis grade ++++ (severe): number of animals / Apoptosis grade ± (minimal): number of animals: N=10; for Apoptosis counting No. (group mean ± S.D.): TUNEL positive cells per 1 mm^2",
  "source_text": "Histopathological test: The extracted tumors were fixed in 10% neutral buffered formalin solution (10% neutral buffered formalin). After sectioning the tumors to a certain thickness (about 3 mm), those were subjected to the general preparation procedure, embedded in paraffin, cut into 4 to 5 μm size, and tissue sections were stained with Hematoxylin and Eosin (H&E) and TUNEL. IHC (Immunohistochemistry) slides, cut into 4 to 5 μm size, were produced and sent to the sponsor (Negative Control Group (G1), Test substance 2 (G3, Animal ID Nos.: 1301, 1302, 1303, 1307, 1310), Test substance 3 (G4, Animal ID Nos.: 1401, 1402, 1404, 1408, 1409)). Determination of TUNEL staining results: After histological examination of the entire cross-section of the tumor for grading (±, +, ++, +++, ++++) of apoptosis, the nucleated brown stained cells were read as […] was counted. The apoptosis of the tumor was determined by the number of positive cells per […] (1 mm^2). The apoptosis of the tumor was determined by calculating the average number of positive cells and graded into the corresponding severity. The number of positive cells in which apoptosis occurred was determined by counting the number of positive cells per unit area (1 mm^2). Histopathological test (Table 7, FIGS. 7-11): The extracted fixed tumor was cut to a certain thickness (about 3 mm), then subjected to general tissue treatment, paraffin-embedded to produce blocks, and tissue sections of 4 to 5 μm in size were prepared. Then, Hematoxylin & Eosin (H&E) staining and TUNEL staining were performed.",
  "note": "“And” between values parts separate entries of the source, which are not always exact repeats. Equal values may be shown once.",
  "data": [
    {"smiles": "CC(C)(C)/[N+]([O-])=C/c1ccc(S(=O)(=O)O)cc1S(=O)(=O)O", "note": "[OKN-007, Disodium 4-[(Z)-[tert-butyl(oxido)azaniumylidene]methyl]benzene-1,3-disulfonate]", "values": [
      {"measurement": "Apoptosis grade + : number of animals", "setting": "G2, 150 mg/kg P.O.", "value": 1},
      {"measurement": "Apoptosis grade ++ (moderate): number of animals", "setting": "G2, 150 mg/kg P.O.", "value": 0},
      {"measurement": "Apoptosis grade +++ (marked): number of animals", "setting": "G2, 150 mg/kg P.O.", "value": 0},
      {"measurement": "Apoptosis grade ++++ (severe): number of animals", "setting": "G2, 150 mg/kg P.O.", "value": 0},
      {"measurement": "Apoptosis grade ± (minimal): number of animals", "setting": "G2, 150 mg/kg P.O.", "value": 9},
      {"measurement": "Apoptosis counting No. (group mean ± S.D.)", "setting": "G2, 150 mg/kg P.O.", "value": "79.6±29.8 No./mm^2 and 79.6 ± 20.8 No./mm^2"},
      {"measurement": "Apoptosis grade + : number of animals", "setting": "G3, 300 mg/kg P.O.", "value": 2},
      {"measurement": "Apoptosis grade ++ (moderate): number of animals", "setting": "G3, 300 mg/kg P.O.", "value": 0},
      {"measurement": "Apoptosis grade +++ (marked): number of animals", "setting": "G3, 300 mg/kg P.O.", "value": 0},
      {"measurement": "Apoptosis grade ++++ (severe): number of animals", "setting": "G3, 300 mg/kg P.O.", "value": 0},
      {"measurement": "Apoptosis grade ± (minimal): number of animals", "setting": "G3, 300 mg/kg P.O.", "value": 8},
      {"measurement": "Apoptosis counting No. (group mean ± S.D.)", "setting": "G3, 300 mg/kg P.O.", "value": "91.5±32.2", "unit": "No./mm^2"},
      {"measurement": "Apoptosis grade + : number of animals", "setting": "G4, 600 mg/kg P.O.", "value": 5},
      {"measurement": "Apoptosis grade ++ (moderate): number of animals", "setting": "G4, 600 mg/kg P.O.", "value": 2},
      {"measurement": "Apoptosis grade +++ (marked): number of animals", "setting": "G4, 600 mg/kg P.O.", "value": 0},
      {"measurement": "Apoptosis grade ++++ (severe): number of animals", "setting": "G4, 600 mg/kg P.O.", "value": 0},
      {"measurement": "Apoptosis grade ± (minimal): number of animals", "setting": "G4, 600 mg/kg P.O.", "value": 3},
      {"measurement": "Apoptosis counting No. (group mean ± S.D.)", "setting": "G4, 600 mg/kg P.O.", "value": "149.9±59.5", "unit": "No./mm^2"}
    ]}
  ]
}
